Experiments:
AIA rats [1] = assay: Clinical disease score and paw thickness in the Adjuvant Induced Arthritis (AIA) rat model; type: in vivo
Procedure: (§1) Female Lewis rats, aged 8-10 weeks, obtained from Harlan Laboratories (Jerusalem, Israel), were injected subcutaneously (SC) at the tail base with 100 μl of suspension composed of incomplete Freund's adjuvant with 10 mg/ml heat killed Mycobacterium tuberculosis. Each group contained 10 animals and each experiment was conducted at least three times.
(§2) Drugs were orally administered by gavage, twice daily. The […] received vehicle only (DMSO in a dilution corresponding to that of the drug) while the treatment groups received 10 μg/kg of IB-MECA. Treatment was initiated on day 14 after vaccination.
The animals were inspected every second day for clinical arthritis. The scoring system ranged from 0-4 of each limb: 0—no arthritis; 1—redness or swelling of one toe/finger joint; 2—redness and swelling of more than one toe/finger joints, 3—the ankle and tarsal-metatarsal joints involvement. 4—entire paw redness or swelling. The inflammatory intensity was also determined in accordance with the increase in the rat hind paw's diameter, measured by caliper (Mitotoyo, Tokyo, Japan).

AIA rats [2] = assay: Histological score of joints of AIA rats; type: in vivo, rat
Procedure: as §1, §2
The foot, knee and hip region of both vehicle and CF101 treated animals were collected and fixed in 10% buffered formalin and decalcified in hydrochloric acid (Calci-Clear Rapid) (Pational Diagnostics, Gr, USA) for 24 h. The specimens were then processed for paraffine embedding, histologic 4-μm sections were cut and stained with hematoxylin and eosin. The sections were assessed by a pathologist blinded to the treatment protocols, and each joint was scored separately. The histology score was assessed as follows: A score of 0 to 4 for the extent of inflammatory cells' infiltration to was used according to the followed: 0—Normal; 1—minimal inflammatory infiltration; 2—mild infiltration; 3—moderate infiltration; 4—marked infiltration. The pannus formation joint tissues, synovial lining cell hyperplasia. The score was graded […]: 0—normal; 1—minimal loss of cortical bone at a few sites; 2—mild loss of cortical trabecular bone; 3—moderate loss of bone at many sites; 4—marked loss of bone at many sites; 5—marked loss of bone at many sites with fragmenting and full thickness penetration of inflammatory process or pannus into the cortical bone. The mean of all the histological parameter scores were designated “Histology Score”.
At day 23 after the disease induction, the animals were scarified, and joints from two hind paws of each animal were harvested and examined histologically. The histological analysis was carried out on the basis of infiltration of inflammatory cells, synovial hyperplasia, cartilage and bone destruction. Most of the histophathological changes were found in the interophalangeal region of the foot. […] Overall, the severity of joint histopathology was correlated with the clinical severity index.

[3] = system: key signaling protein expression down-stream to A3AR activation in paw extracts; assay: Western blot analysis of key signaling proteins in paw extracts from AIA rats; type: in vivo, rat
Procedure: The hind paws were dissected above the ankle joint. The bony tissue was broken into pieces broken, snap frozen in liquid nitrogen and stored at −80° C. until use. The paw tissues were added to (4 ml/g tissue) RIPA extraction buffer containing 150 mM NaCl, 50 mM Tris, 1% NP40, 0.5% Deoxycholate and 0.1% SDS. Tissues were homogenized on ice with a polytron, centrifuged and the supernatans were subjected to Western Blot analysis
Western blot analysis (WB) of paw extracts were carried out according to the following protocol. Samples were rinsed with ice-cold PBS and transferred to ice-cold lysis buffer (TNN buffer, 50 mM Tris buffer pH=7.5, 150 mM NaCl, NP 40). Cell debris was removed by centrifugation for 10 min, at 7500×g. Protein concentrations were determined using the Bio-Rad protein assay dye reagent. Equal amounts of the sample (50 μg) were separated by SDS-PAGE, using 12% polyacrylamide gels. The resolved proteins were then electroblotted onto nitrocellulose membranes (Schleicher & Schuell, Keene, N.H., USA). Membranes were blocked with 1% BSA and incubated with the desired primary antibody (dilution 1:1000) for 24 h at 4° C. Blots were then washed and incubated with a secondary antibody for 1 h at room temperature. Bands were recorded using BCIP/NBT color development kit (Promega, Madison, Wis., USA). Data presented in the different figures are representative of at least four different experiments.
The hind paws of animals from the control and IB-MECA treated groups were dissected and after protein extraction the samples were subjected for WB analysis. […] The activation of the A3AR led to a 40% decrease in the RANKL protein expression level in paw extracts derived from IB-MECA treated AIA rats. […] This Chain of events led a 50% reduction in the expression level of TNF-α upon IB-MECA treatment.

[4] = Plasma half life in human studies; type: in vivo; conditions: data not shown
Procedure: (§3) Based on the above conversion methods, the preferred dosage range for two specific A3AR agonist, e.g. IB-MECA and Cl-IB-MECA, would be less than 4 mg, typically within the range of about 0.01 to about 2 mg (about 0.14-28 micrograms/Kg, respectively) and desirably within the range of about 0.1 to 1.5 mg (about 1.4-21 micrograms/Kg, respectively). This dose may be administered once, twice or, at times, several times a day.

Plasma half life in mice = type: in vivo
Procedure: as §3

[5] = system: Adjuvant Induced Arthritis (AIA), collagen induced arthritis (CIA) and thropomyosine induced arthritis; conditions: different experimental animal models; Baharav et al. 2004; cited from earlier work

CNC(=O)[C@H]1O[C@@H](n2cnc3c(NCc4cccc(I)c4)ncnc32)[C@H](O)[C@@H]1O [IB-MECA, N^6-(3-iodobenzyl)-adenosine-5′-N-methyluronamide]
paw edema (AIA rats [1]; AIA rats, 10 μg/kg orally twice daily from day 14): significantly decreased | inhibition in the paw thickness (AIA rats [1]; AIA rats, 10 μg/kg orally twice daily from day 14 (FIG. 1B)): 35%±1.2 | maximal clinical arthritic score (AIA rats [1]; AIA rats, 10 μg/kg orally twice daily from day 14, score 0-4 of each limb, control 8.7±0.76 (FIG. 1A)): 4.8±0.95 | paw appearance (redness and swelling) (AIA rats [1]; representative paw vs control group (FIG. 1C)): appears completely normal | bone loss (AIA rats [2]; AIA rat model, summary statement): prevents bone loss | fibrosis and hyperplasia of the synovia (AIA rats [2]; day 23 (FIGS. 3A-3B)): almost no the fibrosis and mild hyperplasia of the synovia | pannus tissue development (AIA rats [2]; day 23 (FIGS. 4A-4B)): mild evidence for a development of pannus tissue | cartilage texture / destruction (AIA rats [2]; day 23 (FIGS. 5A-5B)): appeared to be normal | presence of osteoblasts (AIA rats [2]; day 23 (FIGS. 8A-8B)): low presence of osteoblasts | new bone formation (AIA rats [2]; day 23 (FIGS. 9A-9B)): slight new bone formation | reduction in the appearance of osteoclasts (AIA rats [2]; day 23, in comparison to the control group (FIGS. 6A-6B)): 73% | inflammatory changes in the joints, mean total score (AIA rats [2]; day 23, score 0-4, control 3.2±0.14 (FIGS. 2A-2B)): 0.4±0.034 | histopathological changes in the knee region (AIA rats [2]; day 23 after disease induction, vs vehicle group): remained intact | A3AR expression ([3]; WB (FIG. 10A)): Modulation in the A3AR itself was noted | decrease in the RANKL protein expression level ([3]; WB (FIG. 10B)): 40% | level of IKK ([3]; WB (FIG. 10C)): down-regulation | level of NF-κB ([3]; WB (FIG. 10C)): reduced level | reduction in the expression level of TNF-α ([3]; WB (FIG. 10C)): 50% | PI3K protein expression level ([3]; WB, vs control (FIG. 10C)): reduction in the protein expression level | PKB/AKT protein expression level ([3]; WB, vs control (FIG. 10C)): reduction in the protein expression level | half life in plasma [4]: 8 to 10 h | half life (Plasma half life in mice): 1.5 h | clinical and pathological manifestations of arthritis [5]: efficacious in preventing the clinical and pathological manifestations of arthritis

Reference: US20080051364A1, “Therapeutic Treatment of Accelerated Bone Resorption” (priority 2004, published 2008)
